Measured values reported in patent US8895585B2, “Nicotinamide derivative or salt thereof” (FUJIFILM Corporation, priority 2010, dated 2014).
Like-named read-outs stand apart in the source and are kept apart here.

Tests used:
[1] = biological target: T1, glutathione S-transferase (GST)-fused full-length human Syk protein (Homo sapiens, UniProt P43405); assay: Syk enzyme assay; type: biochemical; settings: Syk enzyme assay, Test Example 1; read-out: IC50 of Syk-inhibitory activity
T1 construct: (GST)-fused full-length human Syk protein; GST (glutathione S-transferase); purchased Carna Biosciences
How it was run: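 IC50 values come from a time-resolved FRET readout (615 and 665 nm) of substrate phosphorylation, measured after an EDTA stop and 1 h antibody binding. The kinase reaction ran 40 min at room temperature with 27 μM ATP and 0.4 μM biotin-peptide, following a 15 min compound preincubation with baculovirus-made GST-full-length human Syk.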

[2] = test system: THP-1 cells; assay: TNFα generation assay; type: cell-based, human; settings: Table 22, read-out: IC50 in TNFα generation assay
How it was run: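 Secreted TNFα in supernatant quantified by ELISA or AlphaLISA after 7 h culture on human IgG-coated wells (10 μg/ml coating). Cells were IFN-γ-differentiated THP-1 (10 ng/ml, 2 days), exposed to compound for 30 min at room temperature before plating.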

[3] = Homo sapiens, THP-1, THP-1 cells

| Structure (SMILES) | IC50 [1] [nM] | IC50 [2, 3] [nM] | IC50 ([2]; THP-1 cells) [nM] |
| --- | --- | --- | --- |
| NC(=O)c1cc(F)c(N[C@@H]2CCCC[C@@H]2N)nc1Nc1ccnc2c1ccn2CCN1CCCCC1 [Example 004-029] | < 10 | 130 to 200 |  |
| CN(C)CCCn1ccc2c(Nc3nc(N[C@@H]4CCCC[C@@H]4N)c(F)cc3C(N)=O)ccnc21 [Example 004-030] | < 10 | 130 to 200 |  |
| CN(C)c1cccc2cc(Nc3nc(N[C@@H]4CCCC[C@@H]4N)c(F)cc3C(N)=O)cnc12 [Example 004-032] | < 10 | 130 to 200 |  |
| NC(=O)c1cc(F)c(N[C@@H]2CCCC[C@@H]2N)nc1Nc1cnc2c(N3CCOCC3)cccc2c1 [Example 004-033] | < 10 | 130 to 200 |  |
| COCCn1ccc2c(Nc3nc(N[C@@H]4CCCC[C@@H]4N)c(F)cc3C(N)=O)ccnc21 [Example 004-035] | < 10 | 130 to 200 |  |
| CC(C)Cn1ccc2c(Nc3nc(N[C@@H]4CCCC[C@@H]4N)c(F)cc3C(N)=O)ccnc21 [Example 004-036] | < 10 | 65 to 130 |  |
| NC(=O)c1cc(F)c(N[C@@H]2CCCC[C@@H]2N)nc1Nc1ccnc2c1ccn2C1CC1 [Example 004-037] | < 10 | 65 to 130 |  |
| NC(=O)c1cc(F)c(N[C@@H]2CCCC[C@@H]2N)nc1Nc1ccnc2c1ccn2CC(F)(F)F [Example 004-039] | < 10 | 130 to 200 |  |
| NC(=O)c1cc(F)c(N[C@@H]2CCCC[C@@H]2N)nc1Nc1ccnc2c1ccn2CC1CC1 [Example 004-040] | < 10 | 130 to 200 |  |
| NC(=O)c1cc(F)c(N[C@@H]2CCCC[C@@H]2N)nc1Nc1cncc(-n2ccnn2)c1 [Example 004-043] | 100 to 1000 | 65 to 130 |  |
| Cn1ccc2c(Nc3nc(N[C@H](Cc4ccccc4)C(N)=O)c(F)cc3C(N)=O)ccnc21 [Example 004-044] | < 10 | 130 to 200 |  |
| NC(=O)c1cc(F)c(N[C@H](Cc2ccccc2)C(N)=O)nc1Nc1ccnc2c1ccn2CC1CC1 [Example 004-046] | < 10 | 130 to 200 |  |
| NC(=O)c1cc(F)c(N[C@@H]2CCCC[C@@H]2N)nc1Nc1cncc(-c2cccnc2)c1 [Example 004-103] | 10 to 50 | 65 to 130 |  |
| NC(=O)c1cc(F)c(N[C@@H]2CCCC[C@@H]2N)nc1Nc1cncc(-c2ccncc2)c1 [Example 004-104] | 10 to 50 | 130 to 200 |  |
| NC(=O)c1cc(F)c(N[C@@H]2CCCC[C@@H]2N)nc1Nc1cncc(-c2ccccn2)c1 [Example 004-106] | < 10 | 130 to 200 |  |
| NC(=O)c1cc(F)c(N[C@@H]2CCCC[C@@H]2N)nc1Nc1cnc2c(NCC3CC3)cccc2c1 [Example 004-134] | 10 to 50 | 130 to 200 |  |
| NC(=O)c1cc(F)c(N[C@@H]2CCCC[C@@H]2N)nc1Nc1cnc2c(c1)OCO2 [Example 004-160] | 10 to 50 | 130 to 200 |  |
| COCCn1ncc2cc(Nc3nc(N[C@@H]4CCCC[C@@H]4N)c(F)cc3C(N)=O)ccc21 [Example 004-172, 6-((1R,2S)-2-aminocyclohexylamino)-5-fluoro-2-((1-(2-methoxyethyl)-1H-indazol-5-yl)-amino)nicotinamide] | < 10 |  | 65 to 130 |
| CC(C)C[C@H](CN)Nc1nc(Nc2cncc(-n3nccn3)c2)c(C(N)=O)cc1F [Example 004-195, (R)-2-((5-(2H-1,2,3-triazol-2-yl)pyridin-3-yl)amino)-6-((1-amino-4-methylpentan-2-yl)amino)-5-fluoronicotinamide] | < 10 | 65 to 130 |  |
| CC(C)C[C@H](CN)Nc1nc(Nc2cnc3c(N)cccc3c2)c(C(N)=O)cc1F [Example 004-196, (R)-6-((1-amino-4-methylpentan-2-yl)amino)-2-((8-aminoquinolin-3-yl)amino)-5-fluoronicotinamide] | < 10 | 130 to 200 |  |
| Cn1ncc2cc(Nc3nc(N[C@@H]4CCCC[C@@H]4N)c(F)cc3C(N)=O)cnc21 [Example 004-213] | 10 to 50 | 65 to 130 |  |
| COc1ncc(Nc2nc(N[C@@H]3CCCC[C@@H]3N)c(F)cc2C(N)=O)c2cc[nH]c12 [Example 004-235] | < 10 | 65 to 130 |  |
